Results: ChEMBL document CHEMBL4482324, “Ash1l inhibitors and methods of treatment therewith” (2017)

Target: Histone-lysine N-methyltransferase ASH1L (Homo sapiens, UniProt Q9NR48)
Assay: Inhibition of MOCR-fused ASH1L SET-BAH ( 2069 to 2833 amino acids) (unknown origin) expressed as in Escherichia coli BL21 (DE3) T1R cells using SAM and chicken mono/dinucleosomes incubated for 1 hr by scintillation counting assay

Which IC50 does the source give for `NC(=S)c1cccc(-c2cccnc2)c1` here?
The IC50 was over 100 µM.

With `NC(=S)c1cccc(-c2cn(C3CCOCC3)c3cc(CNC(=O)Cc4c[nH]cn4)ccc23)c1` as the compound, how does the IC50 read?
Its IC50 is under 20 µM.

How did the IC50 turn out when `NC(=S)c1cccc(-c2ccc(OCCOCCNC(=O)c3ccc(-c4c5ccc(=O)cc-5oc5cc(O)ccc45)c(C(=O)O)c3)c3[nH]ccc23)c1` was run?
The IC50 was over 100 µM.

With `NCc1ccnc(-n2cccc2)c1` as the compound, how does the IC50 read?
The IC50 was over 100 µM.

How did the IC50 turn out when `NC(=S)c1cccc(-c2cn(CCCC(F)(F)F)c3cc(CN4CCNCC4)ccc23)c1` was run?
Its IC50 is 20 to 100 µM.

For `NC(=S)c1cccc(-c2cn(C3CCCC3)c3cc(N)ccc23)c1`, which IC50 is on record?
Its IC50 is under 20 µM.

Which IC50 does the source give for `CS(=O)(=O)N1CCC(n2cc(-c3cccc(C(N)=S)c3)c3ccc(CNC(=O)Cc4cc5ccccc5[nH]4)cc32)CC1` here?
The IC50 was under 20 µM.

How did the IC50 turn out when `NC(=S)c1cccc(-c2ccc(CCC(F)F)c3[nH]cnc23)c1` was run?
Its IC50 is under 20 µM.

How did the IC50 turn out when `NC(=S)c1cccc(-c2cn(CC3CCC3)c3cc(CO)ccc23)c1` was run?
Its IC50 is under 20 µM.

With `NC(=S)c1cccc(-c2cn(CCC(F)F)c3cc(N)ccc23)c1` as the compound, how does the IC50 read?
Its IC50 is under 20 µM.

Which IC50 does the source give for `NC(=S)c1cccc(-c2cn(CC3OCCO3)c3cc(N)ccc23)c1` here?
The IC50 was 20 to 100 µM.

How did the IC50 turn out when `Cc1ccc(C(N)=S)cc1-c1cn(C2CCOCC2)c2cc(N)ccc12` was run?
The IC50 was 20 to 100 µM.

With `COC(=O)c1ccc2c(-c3cccc(C(N)=S)c3)c[nH]c2c1` as the compound, how does the IC50 read?
Its IC50 is 20 to 100 µM.

Which IC50 does the source give for `NC(=O)c1ccc2c(-c3cccc(C(N)=S)c3)c[nH]c2c1` here?
Its IC50 is over 100 µM.

`NC(=S)c1ccc(-c2ccc(O)cc2)s1` was tested. Which IC50 did it give?
Its IC50 is over 100 µM.

How did the IC50 turn out when `NC(=O)c1cccc(-c2cn(CCC(F)F)c3cc(N)ccc23)c1` was run?
Its IC50 is under 20 µM.

`NC(=S)c1cc(-c2ccc(O)cc2)ccn1` was tested. Which IC50 did it give?
The IC50 was over 100 µM.

How did the IC50 turn out when `CC(N)c1cccc(-c2cccc3[nH]ccc23)c1` (stereo not drawn) was run?
The IC50 was over 100 µM.

Which IC50 does the source give for `NC(=S)c1cccc(-c2cn(CC(CO)C(F)F)c3cc(CO)ccc23)c1` (stereo not drawn) here?
The IC50 was under 20 µM.

How did the IC50 turn out when `CC(O)COC(C)Cn1cc(-c2cccc(C(N)=S)c2)c2ccccc21` (stereo not drawn) was run?
The IC50 was 20 to 100 µM.

How did the IC50 turn out when `NC(=S)c1cccc(-c2cn(CC(CCF)CC(F)F)c3cc(N)ccc23)c1` (stereo not drawn) was run?
Its IC50 is under 20 µM.

For `NC(=S)c1cccc(-c2cccc3c2ccn3CCO)c1`, which IC50 is on record?
Its IC50 is over 100 µM.

`NC(=S)c1cccc(-c2cn(CC(F)(F)F)c3cc(N)ccc23)c1` was tested. Which IC50 did it give?
Its IC50 is under 20 µM.

How did the IC50 turn out when `NC(=S)c1cccc(-c2ccc(OCCOCCNC(=O)CCCCCNC(=O)c3ccc4c(c3)C(=O)OC43c4ccc(O)cc4Oc4cc(O)ccc43)c3[nH]ccc23)c1` was run?
The IC50 was over 100 µM.

How did the IC50 turn out when `NC(=S)c1cccc(-c2c[nH]c3cnc(N)cc23)c1` was run?
The IC50 was over 100 µM.

Which IC50 does the source give for `NC(=S)c1cccc(-c2ccc(O)c3c2CCC3O)c1` (stereo not drawn) here?
The IC50 was over 100 µM.

Which IC50 does the source give for `NC(=S)c1cccc(-c2cn(CC(=O)C(F)(F)F)c3cc(CO)ccc23)c1` here?
Its IC50 is under 20 µM.

`NC(=S)c1cccc(-c2cn(C3CCOCC3)c3cc(CNc4nnc(N)s4)ccc23)c1` was tested. Which IC50 did it give?
Its IC50 is under 20 µM.

`NC(=S)c1cccc(-c2cn(CCC(F)F)c3cc(CNCCOCCOCCOCCNc4cccc5c4C(=O)N(C4CCC(=O)NC4=O)C5=O)ccc23)c1` (stereo not drawn) was tested. Which IC50 did it give?
The IC50 was under 20 µM.

How did the IC50 turn out when `NC(=S)c1cccc(-c2c[nH]c3cccc(N)c23)c1` was run?
The IC50 was over 100 µM.

How did the IC50 turn out when `NC(=S)c1cccc(-c2cn(CC(CF)CF)c3cc(O)ccc23)c1` was run?
Its IC50 is under 20 µM.

`NC(=S)c1cccc(-c2ccccc2O)c1` was tested. Which IC50 did it give?
The IC50 was over 100 µM.

For `CN(C)CCNc1ccc2c(-c3cccc(C(N)=S)c3)cn(CCCC(F)(F)F)c2c1`, which IC50 is on record?
The IC50 was over 100 µM.

For `NC(=S)c1cccc(-c2cc(CCC(F)F)c3cc[nH]c3c2)c1`, which IC50 is on record?
Its IC50 is under 20 µM.

`NC(=S)c1cccc(-c2cn(CC3CCCC3)c3cc(N)ccc23)c1` was tested. Which IC50 did it give?
Its IC50 is under 20 µM.

For `CSCCn1cc(-c2cccc(C(N)=S)c2)c2ccc(N)cc21`, which IC50 is on record?
Its IC50 is under 20 µM.

`NC(=S)c1cccs1` was tested. Which IC50 did it give?
Its IC50 is over 100 µM.

`NC(=S)c1cccc(-c2cn(C3CCOCC3)c3cc(-c4ccn[nH]4)ccc23)c1` was tested. Which IC50 did it give?
Its IC50 is under 20 µM.

Which IC50 does the source give for `Cc1cc2c(-c3cccc(C(N)=S)c3)cccc2[nH]1` here?
The IC50 was over 100 µM.

With `CCCNc1nnc(NCc2ccc3c(-c4cccc(C(N)=S)c4)cn(C4CCN(S(C)(=O)=O)CC4)c3c2)s1` as the compound, how does the IC50 read?
The IC50 was under 20 µM.

With `NC(=S)c1cccc(-c2cn(CCCC(F)(F)F)c3cc(CN4CCOCC4)ccc23)c1` as the compound, how does the IC50 read?
Its IC50 is 20 to 100 µM.

How did the IC50 turn out when `CS(=O)(=O)N1C2CCC1CC(n1cc(-c3cccc(C(N)=S)c3)c3ccc(N)cc31)C2` (stereo not drawn) was run?
The IC50 was under 20 µM.

Which IC50 does the source give for `NC(=S)c1cccc(-c2ccc(O)c3[nH]ccc23)c1` here?
Its IC50 is 20 to 100 µM.
